Results as given in patent US20060270871A1, “P[…] I OF […] PROCESSES FOR ITS PREPARATION” (priority 2005, published 2006).
Read-outs that look alike come from different tables or passages of the source.

Assays:
[1] = relative to (S)-(+)-pregabalin, type of activity not specified, cited from earlier work
[2] = accelerated stability testing; settings: anhydrous pregabalin, moisture content less than about 0.3% w/w
[3] = hygroscopicity of anhydrous pregabalin; type: physicochemical; settings: moisture content less than about 0.3% w/w

Row | SMILES | times less active when compared with the (S)-(+)-enantiomer [1] | times less active when compared with the (S)-(+)-enantiomer ([1]; listed as (R)-(−)-enantiomer) | stability during the accelerated stability testing [2] | hygroscopicity [3]
1 | CC(C)C[C@@H](CN)CC(=O)O (single isomer, unassigned) [(R)-(−)-enantiomer of pregabalin] | about 40 times | 40 times | – | –
2 | CC(C)CC(CN)CC(=O)O (stereo in doubt) [anhydrous pregabalin, (S)-(+)-3-aminomethyl-5-methyl-1-hexanoic acid] | – | – | stable | non-hygroscopic
